These results are taken from patent US10005815B2, “Biologically cleavable tetrapeptide linking agents” (Arrowhead Madison Inc., priority 2015, dated 2018).

The experiment has as its system liver lysosomal (enzyme) extract. The experiment in a line: Digestion assay with rat liver lysosomal extract. The conditions noted are these: for velocity of digestion, addition of phenylalanine: 54 vs 57, 56 vs 59; for rate and time to completion of digestion, proline at A1 changed to alanine: 33 vs 30, 39 vs 23; for Velocity, Sample / Velocity, Normalized: Table 3; for Velocity, Sample: FCitFP linker with various R5. The experiment is classed as biochemical. The protocol:
Various amino acid combinations, tetrapeptides, were used to link various first moieties (R^5) and an AENA report group second compound (R^6) to form assay substrates (substrates). Cleavage rate of the peptides were evaluated by analysis of digestion of the substrates in the presence of rat lysosomal extract.
Reporting groups were coupled to the C-terminus of the peptide substrates as described above for UV-vis monitoring to explore the influence of amino acid sequence on kinetics of peptide degradation by HPLC. N-(2-aminoethyl)-4-nitroaniline (AENA) or N-(aminoethyl)-5-napthylamine-1-sulfonic acid (EDANS) were used as reporting groups for HPLC monitoring as neither absorptivity nor lambda maximum were affected for either after cleavage from the peptide. The N-terminus of each peptide substrate was modified with either methoxy polyethylene glycol (PEG12) or N-acetyl galactosamine (NAG(OR)3) (FIG. 1).
Proteolytic digestion experiments were carried out at a fixed substrate concentration (0.51 μmol) using liver lysosomal (enzyme) extract (0.45 μg/μL) in a 25 mM MES solution buffered to pH 5 containing 1% CHAPS and 1.8 mM DTT incubated at 37° C. Enzyme extract was activated in the presence of DTT for 15 minutes at 37° C. prior to addition of AENA labeled peptide substrates. At various time points, up to 26 h, 20 μL aliquots were removed and acidified to a pH of 3 with TFA. Analysis of fractions was performed using HPLC with a Aquasil C18 reverse-phase column (250×4.6, Thermofisher, Waltham, Mass.), monitored at 390 nm and 335 nm for AENA and EDANS respectively. Elution was performed with a gradient of acetonitrile and water buffered with 0.1% formic acid. Generation of unmodified reporter molecule was measured. To minimize freeze thaw cycles the lysosomal extract was dispensed into multiple aliquots prior to storage at −80° C. A new aliquot was employed for each study and used immediately upon thawing. Lysosomal extract was sourced from female Hans Wistar rats by differential density gradient centrifugation (Graham et al. 2000). Protein concentration of lysosomal extract was determined by standard BCA protein assay protocols. […]
Rate (also called velocity of degradation or velocity) was extrapolated during early linear turnover (Table 2). As used herein, rate is defined as the linear rate of reporting group generation at less than 50% completion (digestion rate was assumed to be linear at less than 50% completion). For substrates in which cleavage deviated from consecutive first order kinetics, the percent of reporting group liberated at the endpoint of digestion was used as a metric for comparison.

The mark [1] stands for this setting: Table 4, dipeptide EDANS C-terminal modified substrates.
[2] abbreviates: Table 4, dipeptide EDANS substrates, normalized with compound 60.
Where [3] appears, read: AENA substrates, linear rate of reporter generation at <50% completion, pH 5, 37° C.
Setting [4] is: AENA substrates, normalized with compound 60 velocity (average 123.8 nmol/h).

Take “H2N-A-PEG4-Glu(EDANS)-NH-(CH2)2-OH [Compound 59]”: the “Sample Velocity” value under setting [1] was 7.9 nmol/h. Also, the “Normalized Velocity” value under setting [2] came to 7.2 nmol/h.
For “H2N-AP-PEG4-Glu(EDANS)-NH-(CH2)2-OH [Compound 55]” the same measures were 125.7 nmol/h and 115.1 nmol/h.
On to “H2N-F(Nme)A-Glu(EDANS)-NH-(CH2)2-OH [Compound 51]”, for which the “Sample Velocity” value under setting [1] was determined as 177.6 nmol/h. In addition, the “Normalized Velocity” value under setting [2] was found to be 162.6 nmol/h.
For “H2N-FA-PEG4-Glu(EDANS)-NH-(CH2)2-OH [Compound 56]”, the “velocity of digestion, addition of phenylalanine” value is on record as “substantial increase in the velocity of digestion”. Moreover, under setting [1], the “Sample Velocity” value is 61.3 nmol/h. Further, the “Normalized Velocity” value under setting [2] was found to be 56.1 nmol/h.
“H2N-FL-PEG4-Glu(EDANS)-NH-(CH2)2-OH [Compound 54]”: the “velocity of digestion, addition of phenylalanine” value is listed as “substantial increase in the velocity of digestion”. Under setting [1], the “Sample Velocity” value was found to be 155.0 nmol/h. Further, under setting [2], the “Normalized Velocity” value was 132.4 nmol/h.
On to “H2N-FP-PEG4-Glu(EDANS)-NH-(CH2)2-OH [Compound 48]”, for which the “Sample Velocity” value under setting [1] was determined as 448.5 nmol/h. Further, under setting [2], the “Normalized Velocity” value stood at 383.0 nmol/h.
In the case of “H2N-GP-PEG4-Glu(EDANS)-NH-(CH2)2-OH [Compound 58]”, under setting [1], the “Sample Velocity” value came out at 14.4 nmol/h. The “Normalized Velocity” value under setting [2] worked out at 13.9 nmol/h.
As to “H2N-L-PEG4-Glu(EDANS)-NH-(CH2)2-OH [Compound 57]”, the “Sample Velocity” value under setting [1] was 58.3 nmol/h. The “Normalized Velocity” value under setting [2] stood at 53.3 nmol/h.
For “H2N-LP-PEG4-Glu(EDANS)-NH-(CH2)2-OH [Compound 49]” the same measures were 349.1 nmol/h and 338.7 nmol/h.
Taken in the same sequence, the figures for “H2N-NP-PEG4-Glu(EDANS)-NH-(CH2)2-OH [Compound 52]” were 156.5 nmol/h and 151.9 nmol/h.
With “H2N-SP-PEG4-Glu(EDANS)-NH-(CH2)2-OH [Compound 53]”, the “Sample Velocity” value under setting [1] worked out at 145.0 nmol/h. In addition, the “Normalized Velocity” value under setting [2] was determined as 140.7 nmol/h.
For “H2N-VP-PEG4-Glu(EDANS)-NH-(CH2)2-OH [Compound 50]” the same measures were 213.5 nmol/h and 195.5 nmol/h.
With NAG(OAc)3-AAA- AENA [Compound 41], the “% Released at Endpoint (21 hr)” value came out at 8.2%. In addition, the “Sample Velocity” value under setting [3] amounted to 1.6 nmol/h. Further, the “Normalized Velocity” value under setting [4] was 1.6 nmol/h.
On to NAG(OAc)3-ACA- AENA [Compound 43], for which the “% Released at Endpoint (21 hr)” value was determined as 1.1%.
On the same count and under the same terms, as for NAG(OAc)3-ACitAA- AENA [Compound 35], the figure is 49.8%.
With NAG(OAc)3-CitAA- AENA [Compound 40], the “% Released at Endpoint (21 hr)” value came to 15.6%. Further, under setting [3], the “Sample Velocity” value was determined as 3.7 nmol/h. For the same substance, under setting [4], the “Normalized Velocity” value was 3.9 nmol/h.
Take NAG(OAc)3-CitAAA- AENA [Compound 36]: the “% Released at Endpoint” value (endpoint at 24 hours) was “**47.7%”.
NAG(OAc)3-FCitFA- AENA [Compound 39]: the “rate and time to completion of digestion, proline at A1 changed to alanine” value is “dramatic reduction in rate and time to completion of digestion”; the “% Released at Endpoint (21 hr)” value was 40.5%.
On to NAG(OAc)3-FCitFP-AENA [Compound 22a], for which the “Velocity, Sample” value came to 244.9 nmol/h. The “rate of proteolytic digestion, influence of R5” value (22a vs 23, 22a vs 22b) was “essentially equivalent in terms of rate of proteolytic digestion”. In addition, the “Velocity, Normalized” value (normalized with compound 60) amounted to 210.5 nmol/h.
Regarding NAG(OAc)3-FCitVP- AENA [Compound 26], the “% Released at Endpoint (21 hr)” value worked out at 97.8%. Besides, under setting [3], the “Sample Velocity” value stood at 119.5 nmol/h. Besides, the “Normalized Velocity” value under setting [4] was determined as 102.5 nmol/h.
With NAG(OAc)3-VCitFP- AENA [Compound 28], the “Sample Velocity” value under setting [3] stood at 84.3 nmol/h. The “Normalized Velocity” value under setting [4] turned out to be 75.8 nmol/h. Besides, the “% Released at Endpoint” value (endpoint at 23 hours) is on record as “*99.4%”.
NAG(OH)3-FCitAA- AENA [Compound 33]: the “rate and time to completion of digestion, proline at A1 changed to alanine” value is “dramatic reduction in rate and time to completion of digestion”; the “% Released at Endpoint (21 hr)” value came to 68.5%.
Consider NAG(OH)3-FCitFP-AENA [Compound 22b], for which the “Velocity, Sample” value is recorded as 223.7 nmol/h. In addition, the “Velocity, Normalized” value (normalized with compound 60) is 201.0 nmol/h.
With PEG12-ACitFP- AENA [Compound 31], the “Sample Velocity” value under setting [3] was determined as 49.5 nmol/h. The “Normalized Velocity” value under setting [4] was found to be 49.6 nmol/h. Besides, the “% Released at Endpoint” value (endpoint at 23 hours) was “*98.9%”.
With PEG12-FCitF(Nme)A- AENA [Compound 29], the “rate and completion of digestion, N-methylation at A1” value (29 vs 39) was “faster rate and faster completion of digestion”. Further, the “Sample Velocity” value under setting [3] came out at 62.5 nmol/h. Besides, the “Normalized Velocity” value under setting [4] is 62.6 nmol/h. Also, the “% Released at Endpoint” value (endpoint at 23 hours) is on record as “*97.3%”.
For PEG12-FCitFL- AENA [Compound 27], the “Sample Velocity” value under setting [3] was 94.5 nmol/h. Further, under setting [4], the “Normalized Velocity” value is 94.7 nmol/h. Besides, the “% Released at Endpoint” value (endpoint at 24 hours) is reported as “**99.7%”.
For the substance PEG12-FDFP- AENA [Compound 34b], the “Sample Velocity” value under setting [3] was determined as 18.0 nmol/h. Also, under setting [4], the “Normalized Velocity” value amounted to 16.6 nmol/h. In addition, the “% Released at Endpoint” value (endpoint at 26 hours) was “***66.5%”.
With PEG12-FKFL- AENA [Compound 25b], under setting [3], the “Sample Velocity” value was found to be 117.0 nmol/h. Further, the “Normalized Velocity” value under setting [4] was 117.4 nmol/h. Further, the “% Released at Endpoint” value (endpoint at 24 hours) is given as “**99.8%”.
On to PEG12-FKFP- AENA [Compound 24b], for which the “velocity, proline vs leucine at A1” value (23 vs 27, 24b vs 25b) is given as “small increase in velocity”. In addition, under setting [3], the “Sample Velocity” value was 134.8 nmol/h. Further, the “Normalized Velocity” value under setting [4] was determined as 123.9 nmol/h. In addition, the “% Released at Endpoint” value (endpoint at 26 hours) is listed as “***98.9%”.
In the case of PEG12-FNFP- AENA [Compound 32b], the “Sample Velocity” value under setting [3] was determined as 42.0 nmol/h. Besides, the “Normalized Velocity” value under setting [4] was 38.6 nmol/h. Besides, the “% Released at Endpoint” value (endpoint at 26 hours) is given as “***99.3%”.
In the case of PEG12-GFLG- AENA [Compound 38], the “Sample Velocity” value under setting [3] was found to be 10.0 nmol/h. Further, the “Normalized Velocity” value under setting [4] was 9.7 nmol/h. In addition, the “% Released at Endpoint” value (endpoint at 24 hours) is reported as “**47.8%”.
